{
  "source": "patent US10253071B2",
  "about": "“Selectin inhibitors, composition, and uses related thereto” (Beth Israel Deaconess Medical Center, Inc., priority 2014, dated 2019)",
  "key": {"[1]": {"system": "P-selectin (recombinant Ig chimera)", "experiment": "Microarray binding screen of glycopeptide mimics, P-selectin", "set-up": "species or system human and mouse", "details": "selectin Ig chimeras 5-20 μg/mL, Alexa-488 anti-human IgG", "description": "(§1) Bound peptides were detected using Alexa-488 labeled anti-human IgG antibody (5 μg/mL). Three lectins RCA-1, AAL, and PNA were used to confirm the sequence of enzymatic steps. Monoclonal antibodies CHO131, PSG2 antibody and PL-1 were used to confirm the presence of SLex, tyrosine sulfates, and the peptide sequence, respectively. Biacore binding analysis to human P-selectin with observed rate constants for (D) GSnP-6, kon 3.1×10^5 M^−1s^−1, koff 6.9×10^3 M^−1s^−; GSn2P-6, kon6.4×10^5 M^−1s^−1, koff 6.8×10^3 M^−1s. Biacore binding analysis to mouse P-selectin with observed rate constants for (E) GsnP-6, kon 4.9×10^4 M^−1s^−1, koff 8.0×10^3 M^−1s^−; GSn2P-6 kon 5.3×10^4 M^−1s^−1, koff 9.0×10^3 M^−1s. (F) Temperature- and pH-dependent stability studies of GSnP-6.\nBinding affinities of PSGL-1 mimics towards selectins was initially screened using a microarray in which glycosulfopeptides and glycan standards (Sialyl Le^x, NA2, NA2,3, NA2,6 and LNnT) were printed on a NHS-activated glass slide. The slide was then incubated with recombinant Ig chimeras of P-, L-, or E-selectin (5-20 μg/mL) followed by Alexa-488 labeled anti-human IgG antibody (5 μg/mL). […] Binding of glycopeptides mimics to selectins was […] dependent and inhibited by EDTA."}, "human P-selectin": {"biological_target": "T1, human P-selectin (Homo sapiens, UniProt P16109)", "T1 sequence (P16109 42-830)": "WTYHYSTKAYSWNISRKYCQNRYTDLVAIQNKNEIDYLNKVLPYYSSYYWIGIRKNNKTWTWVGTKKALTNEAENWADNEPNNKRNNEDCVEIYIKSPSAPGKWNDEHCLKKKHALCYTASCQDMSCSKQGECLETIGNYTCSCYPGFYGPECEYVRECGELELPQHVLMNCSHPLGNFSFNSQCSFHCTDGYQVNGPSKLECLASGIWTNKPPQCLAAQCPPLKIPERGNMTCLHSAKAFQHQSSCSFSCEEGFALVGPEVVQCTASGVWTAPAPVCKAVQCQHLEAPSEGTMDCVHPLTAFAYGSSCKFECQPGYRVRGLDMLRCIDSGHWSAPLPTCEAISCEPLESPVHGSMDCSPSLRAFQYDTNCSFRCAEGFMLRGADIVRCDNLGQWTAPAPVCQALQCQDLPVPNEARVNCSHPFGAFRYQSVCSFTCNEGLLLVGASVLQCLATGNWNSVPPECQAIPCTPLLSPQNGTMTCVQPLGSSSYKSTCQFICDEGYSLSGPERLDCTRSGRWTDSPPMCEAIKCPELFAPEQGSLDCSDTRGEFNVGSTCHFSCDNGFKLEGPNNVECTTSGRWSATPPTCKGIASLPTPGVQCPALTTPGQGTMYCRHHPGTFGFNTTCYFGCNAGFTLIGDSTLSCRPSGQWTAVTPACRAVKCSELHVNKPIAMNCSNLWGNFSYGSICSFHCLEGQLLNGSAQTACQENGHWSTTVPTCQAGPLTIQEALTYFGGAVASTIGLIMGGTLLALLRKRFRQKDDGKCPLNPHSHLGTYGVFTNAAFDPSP", "experiment": "Biacore binding assay, human P-selectin", "description": "as §1\n(§2) Dissociation constants (Kd) were determined using a Biacore binding assay after initial capture of biotinylated GS(n)P-6 onto streptavidin-coated sensor chips followed by flow through of P-, L- or E-sel-Ig (2.5 to 60 μg/mL). […] The Kd of GSnP-6 to murine P-selectin was ˜9-fold lower than to human P-selectin."}, "E-selectin (E-sel-Ig)": {"biological_target": "T2, E-selectin (E-sel-Ig) (Homo sapiens, UniProt P16581)", "T2 sequence (P16581 22-610)": "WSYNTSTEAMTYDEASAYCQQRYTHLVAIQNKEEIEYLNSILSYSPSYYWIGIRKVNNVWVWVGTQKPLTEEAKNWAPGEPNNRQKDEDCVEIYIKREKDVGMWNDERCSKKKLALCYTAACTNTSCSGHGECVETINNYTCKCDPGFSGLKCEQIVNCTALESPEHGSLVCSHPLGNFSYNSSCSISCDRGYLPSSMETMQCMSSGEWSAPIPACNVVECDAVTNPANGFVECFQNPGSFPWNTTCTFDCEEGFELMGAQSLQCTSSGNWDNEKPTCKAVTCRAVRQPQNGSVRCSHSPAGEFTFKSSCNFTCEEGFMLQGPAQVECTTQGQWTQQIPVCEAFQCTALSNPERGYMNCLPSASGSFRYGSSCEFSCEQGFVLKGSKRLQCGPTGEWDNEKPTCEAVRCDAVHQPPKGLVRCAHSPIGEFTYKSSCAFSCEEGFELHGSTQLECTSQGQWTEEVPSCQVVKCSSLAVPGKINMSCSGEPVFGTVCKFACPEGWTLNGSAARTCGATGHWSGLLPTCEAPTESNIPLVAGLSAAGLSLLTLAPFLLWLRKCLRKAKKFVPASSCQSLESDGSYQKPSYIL", "experiment": "Biacore binding assay, E-selectin", "details": "compared with P-selectin", "description": "as §2"}, "L-selectin (L-sel-Ig)": {"biological_target": "T3, L-selectin (L-sel-Ig) (Homo sapiens, UniProt P14151)", "T3 sequence (P14151 39-372)": "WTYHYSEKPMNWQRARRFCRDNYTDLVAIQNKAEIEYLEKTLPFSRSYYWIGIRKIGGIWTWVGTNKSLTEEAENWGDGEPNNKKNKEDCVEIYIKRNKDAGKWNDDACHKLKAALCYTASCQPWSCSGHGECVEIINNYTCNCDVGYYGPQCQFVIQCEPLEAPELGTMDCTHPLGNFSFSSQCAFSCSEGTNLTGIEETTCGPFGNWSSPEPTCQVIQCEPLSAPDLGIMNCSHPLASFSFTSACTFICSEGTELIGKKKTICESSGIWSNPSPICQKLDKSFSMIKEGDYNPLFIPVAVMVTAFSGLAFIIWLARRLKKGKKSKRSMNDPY", "experiment": "Biacore binding assay, L-selectin", "details": "compared with P-selectin", "description": "as §2"}, "[2]": {"biological_target": "T4, recombinant human P-selectin Fc chimera (Homo sapiens, UniProt P16109)", "T4 sequence (P16109 42-830)": "T1 sequence (P16109 42-830)", "experiment": "Flow cytometry, inhibition of human P-selectin Fc chimera binding to human leukocytes", "format": "cell-based", "description": "Flow cytometry was used to characterize the ability of GSnP-6 to block binding of selectin-IgG chimeras to murine and human leukocytes. Recombinant mouse P- or L-selectin Fc chimera (2 μg/mL) was incubated with murine neutrophils and GSnP-6 (0-30 μM). Likewise, recombinant human P-selectin or L-selectin Fc chimera were incubated with human peripheral blood neutrophils and monocytes, as well as the human U937 cell line in the presence of GSnP-6 (0-30 μM). Binding of selectin-IgG chimeras was detected with PE-conjugated anti-IgG antibody, quantified as mean fluorescent intensity, and plotted as percent inhibition. Specificity was confirmed with selectin-specific blocking antibodies."}},
  "note": "pIC50, pKd: −log10 of the molar value. Like-named read-outs stand apart in the source and are kept apart here. Square brackets hold non-standard residues; d marks the D form. Peptide text beside a SMILES is read from it. * marks the point of attachment. X1 = CC(=O)N[C@@H]1[C@@H](O[C@@H]2O[C@H](CO)[C@H](O)[C@H](O)[C@H]2O)[C@@H](O)[C@@H](CO[C@@H]2O[C@H](CO)[C@@H](O[C@@H]3O[C@H](CO)[C@H](O)[C@H](O[C@]4(C(=O)O)C[C@H](O)[C@@H](NC(C)=O)[C@H]([C@H](O)[C@H](O)CO)O4)[C@H]3O)[C@H](O[C@@H]3O[C@@H](C)[C@@H](O)[C@@H](O)[C@@H]3O)[C@H]2NC(C)=O)O[C@@H]1*; Phe(4-CH2SO3H) = N[C@@H](Cc1ccc(CS(=O)(=O)O)cc1)C(=O)O; Mca = COc1ccc2c(CC(=O)*)cc(=O)oc2c1",
  "data": [
    {"smiles": "COc1ccc2c(CC(=O)NCCCC[C@H](N)C(=O)N[C@@H](CCC(=O)O)C(=O)N[C@@H](Cc3ccc(CS(=O)(=O)O)cc3)C(=O)N[C@@H](CCC(=O)O)C(=O)N[C@@H](Cc3ccc(CS(=O)(=O)O)cc3)C(=O)N[C@@H](CC(C)C)C(=O)N[C@@H](CC(=O)O)C(=O)N[C@@H](Cc3ccc(CS(=O)(=O)O)cc3)C(=O)N[C@@H](CC(=O)O)C(=O)N[C@@H](Cc3ccccc3)C(=O)N[C@@H](CC(C)C)C(=O)N3CCC[C@H]3C(=O)N[C@@H](CCC(=O)O)C(=O)N[C@H](C(=O)N[C@@H](CCC(=O)O)C(=O)N3CCC[C@H]3C(=O)N[C@@H](CC(C)C)C(=O)O)[C@@H](C)O[C@H]3O[C@H](CO[C@@H]4O[C@H](CO)[C@@H](O[C@@H]5O[C@H](CO)[C@H](O)[C@H](O[C@]6(C(=O)O)C[C@H](O)[C@@H](NC(C)=O)[C@H]([C@H](O)[C@H](O)CO)O6)[C@H]5O)[C@H](O[C@@H]5O[C@@H](C)[C@@H](O)[C@@H](O)[C@@H]5O)[C@H]4NC(C)=O)[C@H](O)[C@H](O[C@@H]4O[C@H](CO)[C@H](O)[C@H](O)[C@H]4O)[C@H]3NC(C)=O)cc(=O)oc2c1", "note": "[GSnP-6] (H-K(Mca)E[Phe(4-CH2SO3H)]E[Phe(4-CH2SO3H)]LD[Phe(4-CH2SO3H)]DFLPET(X1)EPL-OH)", "values": [
      {"measurement": "binding to P-selectin compared with E- or L-selectin", "setting": "[1]", "result": "bound to P-selectin more strongly than to E- or L-selectin"},
      {"measurement": "koff", "setting": "human P-selectin; Biacore observed rate constant", "result": 0.0069, "unit": "s⁻¹"},
      {"measurement": "kon", "setting": "human P-selectin; Biacore observed rate constant", "result": 310000, "unit": "M⁻¹ s⁻¹"},
      {"measurement": "pKd", "setting": "human P-selectin; biotinylated GS(n)P-6 captured on streptavidin chip, P-sel-Ig 2.5 to 60 μg/mL, read-out: Dissociation constant (Kd) to human P-selectin", "result": 7.66},
      {"measurement": "apparent affinity to E-selectin", "setting": "E-selectin (E-sel-Ig)", "result": "even lower apparent affinity"},
      {"measurement": "apparent affinity to L-selectin", "setting": "L-selectin (L-sel-Ig)", "result": "even lower apparent affinity"},
      {"measurement": "pIC50", "setting": "[2]; human U-937 cells, GSnP-6 0-30 μM, read-out: IC50, P-selectin dependent interactions, human U-937 cells", "result": "~5.10"},
      {"measurement": "pIC50", "setting": "[2]; human peripheral blood monocytes, read-out: IC50, P-selectin dependent interactions, human monocytes", "result": "~4.52"},
      {"measurement": "pIC50", "setting": "[2]; human peripheral blood neutrophils (PMN), read-out: IC50, P-selectin dependent interactions, human PMN", "result": "~4.52"}
    ]}
  ]
}
